{"source": "paper PMC4845010", "about": "“Three TaFAR genes function in the biosynthesis of primary alcohols and the response to abiotic stresses in Triticum aestivum” (Scientific Reports, 2016)", "target": "T1, TaFAR3 (Triticum aestivum, UniProt A0A142IX60)", "T1 construct": "gene FAR3; full-length ORF, 497 residues (1,494 bp), untagged expression from pYES2/pYES3 in Saccharomyces cerevisiae; gene on chromosome 4BS", "T1 sequence (A0A142IX60 1-497)": "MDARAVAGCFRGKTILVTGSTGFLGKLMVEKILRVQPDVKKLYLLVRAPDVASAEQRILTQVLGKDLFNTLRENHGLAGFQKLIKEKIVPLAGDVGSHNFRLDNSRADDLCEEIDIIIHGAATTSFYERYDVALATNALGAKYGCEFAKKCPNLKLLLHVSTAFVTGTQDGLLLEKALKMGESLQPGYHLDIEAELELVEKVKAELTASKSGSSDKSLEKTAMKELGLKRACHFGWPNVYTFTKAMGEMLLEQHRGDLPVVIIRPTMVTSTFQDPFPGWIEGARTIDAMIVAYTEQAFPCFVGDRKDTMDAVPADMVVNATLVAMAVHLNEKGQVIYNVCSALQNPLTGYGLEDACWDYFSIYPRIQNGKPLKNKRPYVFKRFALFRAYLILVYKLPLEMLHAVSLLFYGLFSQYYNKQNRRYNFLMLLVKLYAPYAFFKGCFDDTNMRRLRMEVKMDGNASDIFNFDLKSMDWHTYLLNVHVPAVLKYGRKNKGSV", "experiment": "heterologous expression in yeast, lipid extraction, TLC and GC-MS", "format": "cell-based", "conditions": "yeast mutant INVSur4# (Sur4 F262A/K266L); endogenous acyl-CoA substrates; none in empty-vector control"}
{"smiles": "CCCCCCCCCCCCCCCCCCCCCCCCCCCCO", "note": "[C28:0-OH]", "values": [{"measurement": "heterologous expression in yeast, lipid extraction, TLC and GC-MS", "value": "In the case of TaFAR3, the highest production of primary alcohol was C28:0-OH"}]}
